# Results as given in the supplement of paper PMC10307832.
# Key:
# Assay in all cases: relative viability (nuclei count vs DMSO), 5 days (fraction); higher = more cells survive
# H3255 = test system: H3255
# How it was run: (§1)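 Relative viability was taken as the ratio of nuclei in treated wells to nuclei in vehicle wells. Lung cancer cell lines in 1536-well plates received compounds by pin tool one day after seeding, either one drug alone or a fixed anchor-drug dose plus five library-drug doses (not always all listed) in √10 steps. Nuclei were counted on 4× images after 5 days of treatment, and values are medians of duplicate plates.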
# 201T = test system: 201T
# How it was run: as §1
# NCI-H1915 = test system: NCI-H1915
# How it was run: as §1
# HCC-78 = test system: HCC-78
# How it was run: as §1
# NCI-H647 = test system: NCI-H647
# How it was run: as §1
# NCI-H2126 = test system: NCI-H2126
# How it was run: as §1
# LC-2-ad = test system: LC-2-ad
# How it was run: as §1
# COR-L 105 = test system: COR-L 105
# How it was run: as §1
# NCI-H2087 = test system: NCI-H2087
# How it was run: as §1
# HCC-827 = test system: HCC-827
# How it was run: as §1
# NCI-H23 = test system: NCI-H23
# How it was run: as §1
# RERF-LC-KJ = test system: RERF-LC-KJ
# How it was run: as §1
# NCI-H2405 = test system: NCI-H2405
# How it was run: as §1
# NCI-H2347 = test system: NCI-H2347
# How it was run: as §1
# ChaGo-K-1 = test system: ChaGo-K-1
# How it was run: as §1
# NCI-H520 = test system: NCI-H520
# How it was run: as §1
# NCI-H650 = test system: NCI-H650
# How it was run: as §1
# LCLC-97TM1 = test system: LCLC-97TM1
# How it was run: as §1
# NCI-H661 = test system: NCI-H661
# How it was run: as §1
# EPLC-272H = test system: EPLC-272H
# How it was run: as §1
# NCI-H1666 = test system: NCI-H1666
# How it was run: as §1
# PC-14 = test system: PC-14
# How it was run: as §1
smiles,measurement,setting,value
CC(=O)O[C@@]12CO[C@@H]1C[C@H](O)[C@@]1(C)C(=O)[C@H](O)C3=C(C)[C@@H](OC(=O)[C@H](O)[C@@H](NC(=O)OC(C)(C)C)c4ccccc4)C[C@@](O)([C@@H](OC(=O)c4ccccc4)[C@H]21)C3(C)C [Docetaxel] + N=C(N)NC(=N)NCCc1ccccc1 [Phenformin] (partner 250 µM),relative viability,H3255; first compound 0.0002 µM,0.353
same,relative viability,H3255; first compound 0.000632 µM,0.349
same,relative viability,H3255; first compound 0.002 µM,0.312
same,relative viability,H3255; first compound 0.006325 µM,0.357
same,relative viability,H3255; first compound 0.02 µM,0.259
same,relative viability,201T; first compound 0.0002 µM,0.4
same,relative viability,201T; first compound 0.000632 µM,0.366
same,relative viability,201T; first compound 0.002 µM,0.36
same,relative viability,201T; first compound 0.006325 µM,0.342
same,relative viability,201T; first compound 0.02 µM,0.242
same,relative viability,NCI-H1915; first compound 0.0002 µM,0.364
same,relative viability,NCI-H1915; first compound 0.000632 µM,0.312
same,relative viability,NCI-H1915; first compound 0.002 µM,0.21
same,relative viability,NCI-H1915; first compound 0.006325 µM,0.147
same,relative viability,NCI-H1915; first compound 0.02 µM,0.116
same,relative viability,HCC-78; first compound 0.0002 µM,0.582
same,relative viability,HCC-78; first compound 0.000632 µM,0.615
same,relative viability,HCC-78; first compound 0.002 µM,0.409
same,relative viability,HCC-78; first compound 0.006325 µM,0.371
same,relative viability,HCC-78; first compound 0.02 µM,0.354
same,relative viability,NCI-H647; first compound 0.0002 µM,0.329
same,relative viability,NCI-H647; first compound 0.000632 µM,0.322
same,relative viability,NCI-H647; first compound 0.002 µM,0.133
same,relative viability,NCI-H647; first compound 0.006325 µM,0.106
same,relative viability,NCI-H647; first compound 0.02 µM,0.0836
same,relative viability,NCI-H2126; first compound 0.0002 µM,0.517
same,relative viability,NCI-H2126; first compound 0.000632 µM,0.468
same,relative viability,NCI-H2126; first compound 0.002 µM,0.297
same,relative viability,NCI-H2126; first compound 0.006325 µM,0.33
same,relative viability,NCI-H2126; first compound 0.02 µM,0.223
same,relative viability,LC-2-ad; first compound 0.0002 µM,0.497
same,relative viability,LC-2-ad; first compound 0.000632 µM,0.494
same,relative viability,LC-2-ad; first compound 0.002 µM,0.327
same,relative viability,LC-2-ad; first compound 0.006325 µM,0.243
same,relative viability,COR-L 105; first compound 0.0002 µM,0.431
same,relative viability,COR-L 105; first compound 0.000632 µM,0.392
same,relative viability,COR-L 105; first compound 0.002 µM,0.279
same,relative viability,COR-L 105; first compound 0.006325 µM,0.267
same,relative viability,COR-L 105; first compound 0.02 µM,0.247
same,relative viability,NCI-H2087; first compound 0.0002 µM,0.44
same,relative viability,NCI-H2087; first compound 0.000632 µM,0.38
same,relative viability,NCI-H2087; first compound 0.002 µM,0.152
same,relative viability,NCI-H2087; first compound 0.006325 µM,0.159
same,relative viability,NCI-H2087; first compound 0.02 µM,0.0907
same,relative viability,HCC-827; first compound 0.0002 µM,0.392
same,relative viability,HCC-827; first compound 0.000632 µM,0.426
same,relative viability,HCC-827; first compound 0.002 µM,0.357
same,relative viability,HCC-827; first compound 0.006325 µM,0.247
same,relative viability,HCC-827; first compound 0.02 µM,0.213
same,relative viability,NCI-H23; first compound 0.0002 µM,0.801
same,relative viability,NCI-H23; first compound 0.000632 µM,0.702
same,relative viability,NCI-H23; first compound 0.002 µM,0.475
same,relative viability,NCI-H23; first compound 0.006325 µM,0.2
same,relative viability,NCI-H23; first compound 0.02 µM,0.121
same,relative viability,RERF-LC-KJ; first compound 0.0002 µM,0.454
same,relative viability,RERF-LC-KJ; first compound 0.000632 µM,0.405
same,relative viability,RERF-LC-KJ; first compound 0.002 µM,0.238
same,relative viability,RERF-LC-KJ; first compound 0.006325 µM,0.209
same,relative viability,RERF-LC-KJ; first compound 0.02 µM,0.195
same,relative viability,NCI-H2405; first compound 0.0002 µM,0.393
same,relative viability,NCI-H2405; first compound 0.000632 µM,0.419
same,relative viability,NCI-H2405; first compound 0.002 µM,0.315
same,relative viability,NCI-H2405; first compound 0.006325 µM,0.297
same,relative viability,NCI-H2405; first compound 0.02 µM,0.26
same,relative viability,NCI-H2347; first compound 0.0002 µM,0.496
same,relative viability,NCI-H2347; first compound 0.000632 µM,0.303
same,relative viability,NCI-H2347; first compound 0.002 µM,0.295
same,relative viability,NCI-H2347; first compound 0.006325 µM,0.201
same,relative viability,NCI-H2347; first compound 0.02 µM,0.256
same,relative viability,ChaGo-K-1; first compound 0.0002 µM,0.431
same,relative viability,ChaGo-K-1; first compound 0.000632 µM,0.408
same,relative viability,ChaGo-K-1; first compound 0.002 µM,0.283
same,relative viability,ChaGo-K-1; first compound 0.006325 µM,0.192
same,relative viability,ChaGo-K-1; first compound 0.02 µM,0.149
same,relative viability,NCI-H520; first compound 0.0002 µM,0.585
same,relative viability,NCI-H520; first compound 0.000632 µM,0.604
same,relative viability,NCI-H520; first compound 0.002 µM,0.37
same,relative viability,NCI-H520; first compound 0.006325 µM,0.255
same,relative viability,NCI-H520; first compound 0.02 µM,0.148
same,relative viability,NCI-H650; first compound 0.0002 µM,0.447
same,relative viability,NCI-H650; first compound 0.000632 µM,0.397
same,relative viability,NCI-H650; first compound 0.002 µM,0.332
same,relative viability,NCI-H650; first compound 0.006325 µM,0.19
same,relative viability,NCI-H650; first compound 0.02 µM,0.21
same,relative viability,LCLC-97TM1; first compound 0.0002 µM,0.403
same,relative viability,LCLC-97TM1; first compound 0.000632 µM,0.366
same,relative viability,LCLC-97TM1; first compound 0.002 µM,0.267
same,relative viability,LCLC-97TM1; first compound 0.006325 µM,0.162
same,relative viability,LCLC-97TM1; first compound 0.02 µM,0.131
same,relative viability,NCI-H661; first compound 0.0002 µM,0.334
same,relative viability,NCI-H661; first compound 0.000632 µM,0.32
same,relative viability,NCI-H661; first compound 0.002 µM,0.317
same,relative viability,NCI-H661; first compound 0.006325 µM,0.267
same,relative viability,NCI-H661; first compound 0.02 µM,0.221
same,relative viability,EPLC-272H; first compound 0.0002 µM,0.304
same,relative viability,EPLC-272H; first compound 0.000632 µM,0.242
same,relative viability,EPLC-272H; first compound 0.002 µM,0.194
same,relative viability,EPLC-272H; first compound 0.006325 µM,0.0792
same,relative viability,EPLC-272H; first compound 0.02 µM,0.0848
same,relative viability,NCI-H1666; first compound 0.0002 µM,0.47
same,relative viability,NCI-H1666; first compound 0.000632 µM,0.515
same,relative viability,NCI-H1666; first compound 0.002 µM,0.537
same,relative viability,NCI-H1666; first compound 0.006325 µM,0.382
same,relative viability,NCI-H1666; first compound 0.02 µM,0.337
same,relative viability,PC-14; first compound 0.0002 µM,0.575
same,relative viability,PC-14; first compound 0.000632 µM,0.212
same,relative viability,PC-14; first compound 0.002 µM,0.129
same,relative viability,PC-14; first compound 0.006325 µM,0.0718
same,relative viability,PC-14; first compound 0.02 µM,0.0382
